# Laboratory results: patent US8349834B2, “Dioxolane derivates for the treatment of cancer” (Clavis Pharma AS, priority 2005, dated 2013)
# Where two headings read alike, the source gives them in different places.
# Tests used:
# HeLa/mut cells = test: MTT growth inhibition in cervical cancer cell line HeLa/mut; format: cell-based, human; conditions: for IC50: 4 days incubation, MTT, read-out: IC50 μM ± Standard Deviation
# Method: The cervical cancer cell line HeLa/mut was seeded, 5×10^3 cells per well, in 96-well-plates. The medium was RMPI 1640 with 2 mM Glutamine and 10% Foetal Bovine Serum. 24 hours later the test compounds were added in 6 concentrations. The cells were incubated for 4 days. The MTT solution was added to each well and incubated for 4 hours. The samples were read by an ELISA reader at 540 nm. The IC50 values were determined from growth curves. The test compounds were troxacitabine elaidic amid, troxacitabine petroselaidoate, troxacitabine-petroselaidic amide and troxacitabine γ-linolenoate.
# U937 cells [1] = test: CellTiter 96 MTS cytotoxicity in U937 cells; conditions: U937, 48 hours; for IC50: read-out: U937 cells IC50 μM ± SD, MTS
# Method: (§1) The U937 and THP-1 cell lines were seeded, 20 000 cells per well, in 96-well-plates. 50 μl medium ( ) was added to each well. At the same time test compounds were added in 5 different concentrations and incubated for 48 hours. The CellTiter 96® Non-Radioactive cell proliferation assay (Promega) was used to study the cytotoxicity of test in these cells. This assay is a colorimetric method for determining the number of viable cells in proliferation or chemosensitivity assays. […] MTS is bioreduced by cells into a formazan product that is soluble in tissue culture medium. The absorbance of the formazan at 490 nm can be measured directly from 96 well assay plates without additional processing.
# THP-1 cells [2] = test: CellTiter 96 MTS cytotoxicity in THP-1 cells; conditions: THP-1, 48 hours; for IC50: read-out: THP-1 cells IC50 μM ± SD, MTS
# Method: as §1
# several cell lines = conditions: prior art references; cited from earlier work
# MaTu/Adr cells = test: in-vitro activity in breast tumour line MaTu and adriamycin resistant subline MaTu/Adr; format: cell-based; conditions: MaTu/Adr vs. MaTu
# U937 cells [3] = tested on: U937 cells
# Method: as §1
# THP-1 cells [4] = tested on: THP-1 cells
# Method: as §1
SMILES,IC50 (U937 cells [1]) [µM],IC50 (THP-1 cells [2]) [µM],other results
"CCCCCCCCCCC/C=C/CCCCC(=O)Nc1ccn([C@@H]2CO[C@H](CO)O2)c(=O)n1 [troxacitabine-petroselaidic amide, Troxacitabine N^4-petroselaidic acid amide]",0.02,0.08,IC50 (HeLa/mut cells): 0.15 ± 0.07 µM
"CCCCCCCC/C=C/CCCCCCCC(=O)Nc1ccn(C2COC(CO)O2)c(=O)n1 (stereo not drawn) [α-troxacitabine N4-elaidic acid amide, reference compound]",10,,
CCCCCCCCC=CCCCCCCCC(=O)Nc1ccn(C2COC(CO)O2)c(=O)n1 (stereo not drawn) [oleic acid amid derivative],,,times better than the elaidic counterpart (several cell lines): 2 to 5 times
"CCCCCCCC/C=C/CCCCCCCC(=O)Nc1ccn([C@@H]2CO[C@H](CO)O2)c(=O)n1 [troxacitabine elaidic-amide, Troxacitabine N^4-Elaidic Acid Amide]",,,resistance factor (MaTu/Adr cells): 6
"CCCCCCCCCCC/C=C\CCCCC(=O)Nc1ccn([C@@H]2CO[C@H](CO)O2)c(=O)n1 [troxacitabine-petroselinic amide, Troxacitabine N^4-petroselinic acid amide]",,,cytotoxicity in words (U937 cells [1]): even more active than the other compounds; cytotoxicity in words (THP-1 cells [2]): even more active than the other compounds
"CCCCCCCCCCC/C=C/CCCCC(=O)OC[C@H]1OC[C@@H](n2ccc(N)nc2=O)O1 [troxacitabine petroselaidoate, Troxacitabine-2′-hydroxymethyl-petroselaidoate]",0.08,0.06,IC50 (HeLa/mut cells): 0.18 ± 0.12 µM; fold more active than troxacitabine elaidic amid (HeLa/mut cells; relative to troxacitabine elaidic amide): 20 fold
"CCCCC/C=C\C/C=C\C/C=C\CCCCC(=O)Nc1ccn([C@@H]2CO[C@H](CO)O2)c(=O)n1 [Troxacitabine N^4-6,9,12-linolenic acid amide]",0.007,0.085,cytotoxicity in words (U937 cells [3]): even more active than the other compounds; cytotoxicity in words (THP-1 cells [4]): even more active than the other compounds
"CCCCC/C=C\C/C=C\C/C=C\CCCCC(=O)OC[C@H]1OC[C@@H](n2ccc(N)nc2=O)O1 [troxacitabine γ-linolenoate, Troxacitabine 2′-hydroxymethyl-6,9,12-linolenoate]",0.09,0.16,IC50 (HeLa/mut cells): 0.83 ± 0.59 µM
CCCCCCCCCCC/C=C\CCCCC(=O)OC[C@H]1OC[C@@H](n2ccc(N)nc2=O)O1 [Troxacitabine-2′-hydroxymethyl-petroselinoate],0.007,0.09,cytotoxicity in words (U937 cells [1]): even more active than the other compounds; cytotoxicity in words (THP-1 cells [2]): even more active than the other compounds
"CCCCCCCCC=CCCCCCCCC(=O)OCC1OCC(n2ccc(N)nc2=O)O1 (stereo not drawn) [Troxacitabine-5′-oleate, reference compound]",0.09,0.07,
"CCCCCCCC/C=C/CCCCCCCC(=O)OC[C@H]1OC[C@@H](n2ccc(N)nc2=O)O1 [Troxacitabine-5′-elaidic acid ester, reference compound]",0.06,0.06,
